Patent US20240066027A1 (DOMAIN THERAPEUTICS, priority 2020, published 2024)

Legend:
[1] = molecular target: T1, human PAR-2 (hPAR-2) receptor expressed in HEK-293 T cells in an endogenous manner (Homo sapiens, UniProt P55085); assay: In vitro human PAR-2 functional antagonist activity using calcium assays (Fluo4AM, FLIPR Tetra); type: cell-based; conditions: HEK-293 T cells stimulated by an EC80 of the 2-Furoyl-LIGRLO-NH2 peptide after 10 min incubation with compound; 20 concentrations, duplicate, two independent experiments
T1 construct: human PAR-2 (hPAR-2) receptor expressed in HEK-293 T cells in an endogenous manner; endogenous in cells; host or cells: HEK-293 T cells
T1 sequence (P55085 26-397): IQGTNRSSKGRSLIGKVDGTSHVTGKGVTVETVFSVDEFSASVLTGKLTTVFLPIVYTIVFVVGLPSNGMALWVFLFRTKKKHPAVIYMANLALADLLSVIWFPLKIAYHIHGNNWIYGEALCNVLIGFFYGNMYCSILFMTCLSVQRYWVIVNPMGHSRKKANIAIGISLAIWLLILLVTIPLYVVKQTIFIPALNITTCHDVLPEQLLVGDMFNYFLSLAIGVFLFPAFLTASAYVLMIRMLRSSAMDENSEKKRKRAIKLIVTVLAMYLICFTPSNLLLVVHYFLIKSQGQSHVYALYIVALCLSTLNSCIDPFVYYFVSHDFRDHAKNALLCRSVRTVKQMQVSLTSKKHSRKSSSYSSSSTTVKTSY
Summary of the method: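 Fluo4AM-loaded HEK-293 T cells were exposed to compound for 10 min to read agonist effect. They were then stimulated with an EC80 of 2-Furoyl-LIGRLO-NH2 and intracellular calcium was recorded for 5 more min on FLIPR. Antagonism was scored against buffer basal and EC80 agonist-alone signals.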

Structure (SMILES) | IC50 [1] | melting point
COc1cc(-n2nc(C(C)(C)C)c3nc(C(=O)N4CCN(c5cc(C)c(C(=O)O)c(C)n5)CC4(C)C)ccc32)ccc1Cl [Example 60, 6-(4-(3-(tert-butyl)-1-(4-chloro-3-methoxyphenyl)-1H-pyrazolo[4,3-b]pyridine-5-carbonyl)-3,3-dimethylpiperazin-1-yl)-2,4-dimethylnicotinic acid] | > 10 µM | 127 to 139 °C
CC(C)Cc1nn(-c2ccc(C(F)(F)F)nc2)c2ccc(C(=O)N3CCNC(=O)C3(C)C)nc12 [Example 66, 4-(3-isobutyl-1-(6-(trifluoromethyl)pyridin-3-yl)-1H-pyrazolo[4,3-b]pyridine-5-carbonyl)-3,3-dimethylpiperazin-2-one] | > 10 µM | 185 to 190 °C
CC(C)Cc1nn(-c2ccc(OC(F)(F)F)cc2)c2ccc(C(=O)N3CCNC(=O)C3(C)C)nc12 [Example 79, 4-(3-isobutyl-1-(4-(trifluoromethoxy)phenyl)-1H-pyrazolo[4,3-b]pyridine-5-carbonyl)-3,3-dimethylpiperazin-2-one] | 0.02 to 10 µM | 185 to 187 °C
CC(C)Cn1cc(N2CCCCC2)c2ccc(C(=O)N3CCNC(=O)C3(C)C)nc21 [Example 82, 4-(1-isobutyl-3-(piperidin-1-yl)-1H-pyrrolo[2,3-b]pyridine-6-carbonyl)-3,3-dimethylpiperazin-2-one] | 0.02 to 10 µM | 233 to 237 °C
O=C(c1cc2c(cn1)c(-c1ccc(Cl)c(F)c1)nn2CC(F)(F)F)N1CCCOCC1 [Example 89, (3-(4-chloro-3-fluorophenyl)-1-(2,2,2-trifluoroethyl)-1H-pyrazolo[4,3-c]pyridin-6-yl)(1,4-oxazepan-4-yl)methanone] | > 10 µM | 84 to 88 °C
O=C(c1cc2c(cn1)c(-c1ccc(Cl)c(F)c1)nn2CC(F)(F)F)N1CC2CCC(C1)O2 [Example 90, (8-oxa-3-azabicyclo[3.2.1]octan-3-yl)(3-(4-chloro-3-fluorophenyl)-1-(2,2,2-trifluoroethyl)-1H-pyrazolo[4,3-c]pyridin-6-yl)methanone] | > 10 µM | 198 to 200 °C
COc1ccc(-n2nc(CC(C)C)c3nc(C(=O)N4CCNC(=O)C4(C)C)ccc32)cn1 [Example 92, 4-(3-isobutyl-1-(6-methoxypyridin-3-yl)-1H-pyrazolo[4,3-b]pyridine-5-carbonyl)-3,3-dimethylpiperazin-2-one] | > 10 µM | 189 to 192 °C
COc1ccc(-n2nc(CC(C)C)c3nc(C(=O)N4CCNC(=O)C4(C)C)ccc32)cc1 [Example 93, 4-(3-isobutyl-1-(4-methoxyphenyl)-1H-pyrazolo[4,3-b]pyridine-5-carbonyl)-3,3-dimethylpiperazin-2-one] | > 10 µM | 182 to 185 °C
CC(C)Cn1cc(-c2cc(F)cc(F)c2)c2ccc(C(=O)N3CCNC(=O)C3(C)C)nc21 [Example 108, 4-(3-(3,5-difluorophenyl)-1-isobutyl-1H-pyrrolo[2,3-b]pyridine-6-carbonyl)-3,3-dimethylpiperazin-2-one] | 0.02 to 10 µM | 165 to 170 °C
CC(C)Cn1cc(-c2ccc(N(C)C)nc2)c2ccc(C(=O)N3CCNC(=O)C3(C)C)nc21 [Example 109, 4-(3-(6-(dimethylamino)pyridin-3-yl)-1-isobutyl-1H-pyrrolo[2,3-b]pyridine-6-carbonyl)-3,3-dimethylpiperazin-2-one] | 0.02 to 10 µM | 205 to 210 °C
CC(C)Cn1cc(-c2ccc(C#N)nc2)c2ccc(C(=O)N3CCNC(=O)C3(C)C)nc21 [Example 110, 5-(6-(2,2-dimethyl-3-oxopiperazine-1-carbonyl)-1-isobutyl-1H-pyrrolo[2,3-b]pyridin-3-yl)picolinonitrile] | 0.02 to 10 µM | 260 to 265 °C
COc1ccc(-c2cn(CC(C)C)c3nc(C(=O)N4CCNC(=O)C4(C)C)ccc23)cc1 [Example 111, 4-(1-isobutyl-3-(4-methoxyphenyl)-1H-pyrrolo[2,3-b]pyridine-6-carbonyl)-3,3-dimethylpiperazin-2-one] | 0.02 to 10 µM | 195 to 200 °C

Next, values leading:

IC50 [1] | melting point | Structure (SMILES)
0.02 to 10 µM | 226 to 229 °C | CC(C)Cn1cc(C2CCCCC2)c2ccc(C(=O)N3CCNC(=O)C3(C)C)nc21 [Example 48, 4-(3-cyclohexyl-1-isobutyl-1H-pyrrolo[2,3-b]pyridine-6-carbonyl)-3,3-dimethylpiperazin-2-one]
0.02 to 10 µM | 175 to 178 °C | CC(C)Cn1cc(-c2ccccc2)c2ccc(C(=O)N3CCNC(=O)C3(C)C)nc21 [Example 49, 4-(1-isobutyl-3-phenyl-pyrrolo[2,3-b]pyridine-6-carbonyl)-3,3-dimethyl-piperazin-2-one]
0.02 to 10 µM | 207 to 212 °C | Cc1ccc(-c2cn(CC(C)C)c3nc(C(=O)N4CCNC(=O)C4(C)C)ccc23)cc1 [Example 51, 4-[1-isobutyl-3-(p-tolyl)pyrrolo[2,3-b]pyridine-6-carbonyl]-3,3-dimethyl-piperazin-2-one]
0.02 to 10 µM | 225 to 230 °C | Cc1ccccc1-c1cn(CC(C)C)c2nc(C(=O)N3CCNC(=O)C3(C)C)ccc12 [Example 52, 4-[1-isobutyl-3-(o-tolyl)pyrrolo[2,3-b]pyridine-6-carbonyl]-3,3-dimethyl-piperazin-2-one]
0.02 to 10 µM | 216 to 218 °C | CC(C)Cn1cc(-c2ccc(C(F)(F)F)cc2)c2ccc(C(=O)N3CCNC(=O)C3(C)C)nc21 [Example 55, 4-[1-isobutyl-3-[4-(trifluoromethyl)phenyl]pyrrolo[2,3-b]pyridine-6-carbonyl]-3,3-dimethyl-piperazin-2-one]
0.02 to 10 µM | 192 to 194 °C | CC(C)Cn1cc(-c2ccc(F)cc2)c2ccc(C(=O)N3CCNC(=O)C3(C)C)nc21 [Example 56, 4-[1-isobutyl-3-[4-fluorophenyl]pyrrolo[2,3-b]pyridine-6-carbonyl]-3,3-dimethyl-piperazin-2-one]
0.02 to 10 µM | 202 to 204 °C | CC(C)Cn1cc(-c2cccc(OC(F)(F)F)c2)c2ccc(C(=O)N3CCNC(=O)C3(C)C)nc21 [Example 57, 4-[1-isobutyl-3-[3-(trifluoromethoxy)phenyl]pyrrolo[2,3-b]pyridine-6-carbonyl]-3,3-dimethyl-piperazin-2-one]
